“Also recorded” adds a separate entry of the source.
What was measured:
B16 melanoma cells [1] = assay: effect of swainsonine on B16 melanoma solid tumor growth; type: in vivo, mouse; settings: for inhibition of B16 growth: 1.0, 0.01 and 0.001 μg Sw (p<0.5)
Protocol: The B16 melanoma cells were purchased from American Type Culture Collection (ATCC). They were maintained in complete A-MEM (SIGMA) (with 10% fetal calf serum (FCS) (Sigma), 100 U/ml penicillin (Sigma), 100 μg/ml streptomycin (Sigma) and 2 mM utamine (Sigma)) in Corning 75 cm^2 straight necked flasks (T75) and grown with 5.5% CO2 in air with 95% humidity in a New Brunswick Scientific water jacketed incubator. […] They were harvested using 1× Trypsin-EDTA (Sigma), centrifuged at 100×g with a Beckman TJ6 centrifuge, counted using a hemocytometer and stained with trypan blue to determine viability. The cells used for injection into the mice were washed three times in phosphate buffered saline (PBS), counted and resuspended in PBS at a final concentration of 6×10^6 cells per ml.
The swainsonine, purchased from Boehringer Mannheim, was initially suspended in PBS at 100 μg/ml. Subsequent dilutions utilized in the following experiments were made in PBS.
Fifteen female C57B1/6 mice (6 weeks old, from Harlan Sprague Dawley Laboratories) were treated 3 times per week on a Monday-Wednesday-Friday (MWF) schedule for three weeks prior to the injection of the 6×10^5 B16 melanoma cells. The treatment consisted of 0.1 ml (total volume) intraperitoneal injections of swainsonine in the mornings before 9:00 am. The treatment groups were as follows:
The MWF treatment with the swainsonine continued after the tumor cell injection until the termination of the study. Once the tumor was palpable, electronic calipers were used to measure the length (l), width (w) and depth (d) of the tumor. The volume of the tumor was then determined by V=πr^2 ×d, with the assumption that the tumor is a […], then r=(l+w)/4.
The effect of swainsonine on the growth of B16 melanoma solid tumors in vivo was investigated by pretreating the mice for 3 weeks and then injecting melanoma cells into the right shoulder area. Palpable tumors in the control group (0.0 μg Sw) were present on day 5 post tumor cell injection. These tumors were the size of a grain of rice and could not be accurately measured. FIG. 66 graphically presents tumor growth rate versus time. Tumors whose size could be reliably measured were present on day 7 in the controls (Table I). […] This was a delay of two day in both instances. The 0.1 μg Sw slowed growth of the melanoma tumor. The tumors in the 0.1 μg Sw group were 74% (p=0.03) smaller in size on day 9 compared to the controls and 68% (p=0.003) smaller on day 11.

B16 melanoma cells [2] = assay: effect of swainsonine on cytotoxic T-lymphocytes (51Cr release); type: in vivo, mouse
Protocol: The cytotoxicity assay used two targets: YAC-1, for natural killer cell targets and B16 melanoma cells, for cytolytic T-cell targets. The YAC-1 cells were labelled in GKN (ucose/KCl/NaCl) with ^51 Cr (NEN-DuPont, 400-1200 Ci/g activity) for 60 min. The B16's were ^51 Cr labelled in complete α-MEM media for 60 min. Both targets were washed twice through whole fetal calf serum to remove damaged and dead cells and then suspended in complete RPMI at a final concentration of 1×10^5 cells/ml. The spleen cells (effector cells) were plated in round bottom 96 well trays starting at 1×10^7 cells/ml (100 μl/well), using a halving dilution that provided splenocyte concentrations of 10^6, 5×10^5, 2.5×10^5, 1.25×10^5, 6.25×10^4 and 3.125×10^4, all done in triplicate. The target cells were added at 1×10^4 cell/100 μl/well; this gave an effector:target cell ratio ranging from 100:1 to 3:1. Controls included spontaneous ^51 Cr release and 100% lysis (10% triton treatment). The trays were centrifuged at 50×g for 5 min. and incubated in a CO2 incubator at 37° C. for 16 hours. The trays were spun again at 50×g for 5 minutes and 100 μl removed from each well for counting. A Packard gamma counter (United Technologies) was used for counting. Each sample was counted for 1 min. giving a 5% counting efficiency. The following equation was used to determine percent lysis.
The effector:target ratios were then plotted against percent lysis and a simple line equation was determined for each treatment group. The slope of this line was then used to determine the total effector kill efficiency.
The ^51 Cr cytotoxicity assay was also run with the B16 melanoma cells as the target and the splenocytes from the same mice as above as the effector cells. The baseline mice (no tumor/no Sw) and the control mice (tumor/no SW) had very similar line shapes and slopes. There were significant differences (p=0.03) between the presence and absence of tumor (see Table in FIG. 68).

O[C@H]1[C@H]2[C@H](O)CCCN2C[C@H]1O [Swainsonine, swainsonine]
delay of onset of tumor growth (B16 melanoma cells [1]; 0.1 μg Sw): two
tumor size reduction versus control (B16 melanoma cells [1]; 0.1 μg Sw, day 9, p=0.03): 74%
tumor size reduction versus control (B16 melanoma cells [1]; 0.1 μg Sw, day 11, p=0.003): 68%
first day of palpable tumors (B16 melanoma cells [1]; 0.1 μg Sw, control day 5): 7 days
first day of measurable tumors (B16 melanoma cells [1]; 0.1 μg Sw, control day 7): 9 days
effect on growth (B16 melanoma cells [1]; 1.0 μg Sw): causes enhanced growth
inhibition of B16 growth (B16 melanoma cells [1]): no effect on delaying growth
inhibition of B16 growth (B16 melanoma cells [1]; listed as Sw): less effective at inhibiting the B16 growth
CTL activity in words (B16 melanoma cells [2]; 0.1 μg Sw for 3 weeks, listed as Sw): greater than that of the control and of the 0.01 μg treated mice; also recorded: significant increase in the CTL activity
increase in line slope above baseline (B16 melanoma cells [2]; 0.1 μg Sw, day 7 tumor): 228%
increase in line slope over control mice with day 7 tumor (B16 melanoma cells [2]; 0.1 μg Sw, day 7 tumor): 127%
